The results in this text go back to patent publication US8293481B2, “Biomarkers for chronic vascular dysfunction” (Mayo Foundation for Medical Education and Research, priority 2006, dated 2012).

This assay relates to panel of genes listed in b69 and b71 (Tmlhe, Af6, F2, Ywag, PPAR A, Resp18, Edn1, oxytocin and others). Nature of the assay: Real-time PCR gene expression in aorta post MI, genes listed together as unchanged. In kind it is in vivo, rat. The conditions noted are these: post MI groups versus uninfarcted control. The text has this:
After intubation, rats were ventilated continuously (room air) using a small animal ventilator (Model 683, Harvard Apparatus, Holliston, Mass.). A left lateral thoracotomy incision was made along the 5th intercostal space and after the pericardium was opened, the heart was exteriorized using a retention suture placed at the apex. The left anterior descending coronary artery (LAD) was ligated twice using 6-0 prolene suture (Ethicon, Cornelia, Ga.). After chest closure with running 3-0 vicryl suture (Ethicon), rats were put in a recovery chamber with a heating pad and warming light. The post-operative survival rate reached 80%. […] Confirmation of microarray result by quantitative real-time PCR: The remaining RNA from the aortic or portal vein RNA sample was quantitatively converted to single stranded cDNA using the High-Capacity cDNA Archive Kit (Applied Biosystems, Foster City, Calif.). […] The synthesized cDNA was then mixed with TAQMAN® Universal PCR Master Mix (2.5 μl of cDNA+47.5 μl of RNase-free H2O+50 μl of Master Mix) and loaded onto 384-Well micro fluid cards for quantitative real-time PCR (TAQMAN® Low Density Arrays, Applied Biosystems). […] For each cDNA sample, four replicates were analyzed for real-time PCR. […] The array was then run on the Applied Biosystems 7900HT Fast Real-time PCR System, and the data were analyzed using an Applied Biosystems RQ Manager Software (SDS 2.1). […]
(In general: In qPCR the cycle at which signal appears reflects the starting amount.)

For the compound `C[C@H](CS)C(=O)N1CCC[C@H]1C(=O)O` [Captopril, 1-[(2S)-3-mercapto-2-methylpropionyl]-L-proline], the “expression of 14 genes (Taok1, Raf1, Fmr1, Rock2, Baat, Gls2, Acot8, Tmlhe, Af6, F2, Ywag, PPAR A, Resp18, Edn1 and oxytocin)” value (2 weeks post infarction) is on record as “no significant change”. Moreover, the “expression of 14 genes (MIR16, Agt, Cxcl12, Seh1h, Cox5, HGF, Tmlhe, Af6, F2, Ywag, PPAR A, Resp18, Edn1 and oxytocin)” value (4 weeks post infarction) is on record as “no significant change”.
